The values that follow come from patent publication US20080219922A1, “Alzheimer's Disease Imaging Agents” (priority 2005, published 2008).

Data set [1] can be described thus: Partition coefficient determination (1-octanol/phosphate buffer pH 7.4). In kind it is physicochemical. To be noted: 1-octanol / 0.02 M sodium phosphate buffer pH 7.4. As to the method: Measurement of distribution coefficient of [^18F]tracer was performed based on the method described by Wilson et al. [Labelled Compd. Radiopharm., 42:1277-1288 (1999)] using 0.02 M sodium phosphate buffer at pH 7.4 and 1-octanol. Basically, the test tubes containing ˜20 μCi of the radiotracer and 2 mL each of 1-octanol and phosphate buffer were vortexed for 10 min at room temperature and then centrifuged for 5 min. Samples (0.5 mL) from 1-octanol and buffer layers were counted in a Packard Cobra II auto-gamma counter (Perkin-Elmer, Downers Grove, Ill.) and decay corrected. The measurement was repeated three times. The log P7.4 value was calculated as follows: log P7.4 log [counts in octanol phase/counts in buffer phase].

The conditions of data set [2]: rhesus monkey, in vivo, iv.
Description: In order to assess brain uptake and clearance, FZ 202-1 and FZ 202-2 were radiolabeled with fluorine-18. The kinetics of fluorine-18 labeled FZ 202-1 and FZ 202-2 in brain were determined by microPET in rhesus monkeys.
PET study was performed in a male rhesus monkey weighing 6-10 kg using a Concorde MicroPET P4 imaging system. The animal was initially anesthetized with an intramuscular injection of Telazol (3 mg/kg), intubated, and then maintained on a 1% isoflurane/5% oxygen gas mixture throughout the imaging session. The monkey was placed in the PET scanner and the head was immobilized. Blood pressure, heart and respiratory rates, and expired CO2 and oxygen saturation levels were monitored continuously during the PET study. A transmission scan was obtained with a germanium-68 source prior to the PET study for attenuation correction of the emission data. Brain emission scans were performed following the intravenous administration of [^18F]tracer (5 mCi). Serial dynamic transaxial images were acquired for a total of 120 min and then binned for analysis. Emission data acquired were subject to iterative reconstruction (OSEM, two iterations, 40 subsets) with no pre- or postfiltering to provide images with an isotropic resolution of 3 mm fwhm. […]
Data set [3] deals with T1, amyloid plaques in sections from postmortem AD brains (Homo sapiens, UniProt P05067).
T1 construct: abundant amyloid plaques or deposits composed of amyloid-β(Aβ) peptides; from tissue; host or cells: postmortem brain tissue sections of frontal lobe from an AD patient
T1 sequence (P05067 672-713 limits assumed): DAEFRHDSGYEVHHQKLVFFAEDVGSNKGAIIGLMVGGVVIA
Put plainly: In vitro film autoradiography of postmortem AD brain sections. Type of data set: binding. From the text: FZ 202-1 in postmortem brain tissue sections of frontal lobe from an AD patient. A: AD tissue+[^18F] FZ 202-1. B: [^18F] […] C: […] [^18F]

On to `Cc1cc2nc(-c3ccc(N(C)C)cc3)cn2nc1F` [FZ 202-1], for which the “Log P7.4” value in data set [1] came out at 2.69.
For the compound `Cc1cc(F)nn2cc(-c3ccc(N(C)C)cc3)nc12` [FZ 202-2], in data set [1], the “Log P7.4” value was 2.83.
As to `CN(C)c1ccc(-c2cn3cc([125I])ccc3n2)cc1` [IMPY, reference compound], the “Log P7.4” value in data set [1] is reported as 3.58.
`Cc1cc2nc(-c3ccc(N(C)C)cc3)cn2nc1F` [[^18F]-FZ 202-1]: the “radioactivity ratios of peak-to-115 min in cerebellum, frontal cortex and subcortical white matter” value in data set [2] (male) is on record as 2.5-4.9. Also, in data set [2], the “bone uptake of radioactivity in the skull” value was “No bone uptake”. The “specific binding after pretreatment with nonradioactive PIB and IMPY” value in data set [3] (AD specimen, FIG. 3: +1 mM PIB, +10 mM IMPY) was “eliminated”. Further, the “specific binding to amyloid plaques (plaque labeling)” value in data set [3] (postmortem AD brain sections, frontal lobe, film autoradiography) is listed as “clearly observed in cortical gray matter, but not in the white matter”.
